# The source made the active and inactive calls.
# Assays:
# [1] = inhibitors of intracellular T. cruzi replication, confirmation, NIH3T3 host cells, beta-gal luminescence (AID 2044); type: functional, cell-based;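 note: intracellular parasites grown in NIH/3T3 mouse fibroblasts as host cells; luminescent beta-galactosidase reporter signal from transgenic T. cruzi replicating inside host cells; inhibitors lower the luminescence signal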
# HEK293 = assay: inhibitors of LMP1-driven NF-kB reporter, dose response, cell-based, HEK293, luciferase, cherry-pick (AID 588343); type: functional; settings: Homo sapiens
# INS1 = assay: beta cell apoptosis inhibitors, cytokine rescue, dose response, luminescence, retest (AID 449756); type: functional, cell-based; settings: Rattus norvegicus;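 note: cell death triggered by IL-1 beta plus TNF-alpha plus IFN-gamma mixture; protective hits raise ATP signal compared with cytokine alone wells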
# [2] = cytotoxicity toward NIH3T3 fibroblasts, dose response, counter-screen, cell-based, ATP luminescence, mouse fibroblasts (AID 2010); type: functional;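 note: cells exposed to compound for about 90 hours before reading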
# [3] = target: Heat shock protein HSP 90-alpha (Homo sapiens, UniProt P07900); type: functional, organism-based
# [4] = tested on: Streptococcus sp. 'group A'; assay: growth inhibition of control SK(-) GAS strain, dose response, counter-screen for streptokinase expression inhibitor project, luminescence, kanamycin, BacTiterGlo, confirmation (AID 1900); type: functional, organism-based
# Streptococcus = assay: Group A Streptococcus viability loss, dose response, counter-screen for streptokinase expression inhibitor project, luminescence, BacTiterGlo (AID 1915); type: functional, organism-based;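 note: potency for reduction of bacterial viability or growth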
# Caspase-7 = Caspase-7 (Homo sapiens, UniProt P55210); assay: procaspase-7 activators, dose response, counter-screen for procaspase-3 activator project, biochemical, absorbance (AID 489013)
# Caspase-7, sequence (P55210 24-198 limits assumed): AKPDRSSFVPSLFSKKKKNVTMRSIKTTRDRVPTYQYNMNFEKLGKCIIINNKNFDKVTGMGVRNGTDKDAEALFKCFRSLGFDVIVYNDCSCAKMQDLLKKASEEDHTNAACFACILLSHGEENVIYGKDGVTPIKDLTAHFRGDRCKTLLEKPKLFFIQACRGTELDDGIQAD
# Caspase-7, sequence (P55210 207-303 limits assumed): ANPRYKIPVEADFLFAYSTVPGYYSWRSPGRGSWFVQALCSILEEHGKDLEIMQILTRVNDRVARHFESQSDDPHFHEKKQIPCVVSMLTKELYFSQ
# Protein RecA = target: T1, Protein RecA (Mycobacterium tuberculosis, UniProt P9WHJ3); assay: Fluorescence Cell-Free Homogeneous Dose Retest to Identify Inhibitors of RecA-Intein Splicing Activity. [Related pubchem assays (depositor defined):AID2097, AID2223, AID489010, AID492950]; type: functional
# T1 sequence (P9WHJ3 whole entry): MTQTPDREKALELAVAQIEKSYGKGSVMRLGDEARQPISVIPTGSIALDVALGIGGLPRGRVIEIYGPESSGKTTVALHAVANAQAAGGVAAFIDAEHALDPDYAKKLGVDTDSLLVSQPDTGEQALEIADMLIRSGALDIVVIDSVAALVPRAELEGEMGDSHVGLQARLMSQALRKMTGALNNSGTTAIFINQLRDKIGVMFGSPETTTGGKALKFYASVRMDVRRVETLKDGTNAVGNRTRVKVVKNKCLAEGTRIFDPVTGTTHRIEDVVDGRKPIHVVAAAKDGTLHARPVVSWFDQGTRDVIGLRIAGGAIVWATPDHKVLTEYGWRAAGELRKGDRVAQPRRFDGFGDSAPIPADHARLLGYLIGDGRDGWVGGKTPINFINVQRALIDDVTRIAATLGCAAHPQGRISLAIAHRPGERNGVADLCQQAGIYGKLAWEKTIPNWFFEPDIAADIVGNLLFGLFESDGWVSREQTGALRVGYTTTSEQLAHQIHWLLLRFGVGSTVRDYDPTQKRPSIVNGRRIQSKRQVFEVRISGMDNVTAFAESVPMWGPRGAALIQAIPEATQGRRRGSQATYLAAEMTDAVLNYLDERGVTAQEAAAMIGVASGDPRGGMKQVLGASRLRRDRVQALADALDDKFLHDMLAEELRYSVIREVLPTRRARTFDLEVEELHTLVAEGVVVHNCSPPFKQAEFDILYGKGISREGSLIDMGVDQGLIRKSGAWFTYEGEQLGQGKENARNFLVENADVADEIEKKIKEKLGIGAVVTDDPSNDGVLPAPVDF
# [5] = target: T2, Replicative DNA helicase DnaB (Mycobacterium tuberculosis, UniProt P9WMR3); assay: DnaB intein splicing inhibitors, dose response, biochemical, cell-free fluorescence (AID 449749); type: functional
# T2 sequence (P9WMR3 whole entry): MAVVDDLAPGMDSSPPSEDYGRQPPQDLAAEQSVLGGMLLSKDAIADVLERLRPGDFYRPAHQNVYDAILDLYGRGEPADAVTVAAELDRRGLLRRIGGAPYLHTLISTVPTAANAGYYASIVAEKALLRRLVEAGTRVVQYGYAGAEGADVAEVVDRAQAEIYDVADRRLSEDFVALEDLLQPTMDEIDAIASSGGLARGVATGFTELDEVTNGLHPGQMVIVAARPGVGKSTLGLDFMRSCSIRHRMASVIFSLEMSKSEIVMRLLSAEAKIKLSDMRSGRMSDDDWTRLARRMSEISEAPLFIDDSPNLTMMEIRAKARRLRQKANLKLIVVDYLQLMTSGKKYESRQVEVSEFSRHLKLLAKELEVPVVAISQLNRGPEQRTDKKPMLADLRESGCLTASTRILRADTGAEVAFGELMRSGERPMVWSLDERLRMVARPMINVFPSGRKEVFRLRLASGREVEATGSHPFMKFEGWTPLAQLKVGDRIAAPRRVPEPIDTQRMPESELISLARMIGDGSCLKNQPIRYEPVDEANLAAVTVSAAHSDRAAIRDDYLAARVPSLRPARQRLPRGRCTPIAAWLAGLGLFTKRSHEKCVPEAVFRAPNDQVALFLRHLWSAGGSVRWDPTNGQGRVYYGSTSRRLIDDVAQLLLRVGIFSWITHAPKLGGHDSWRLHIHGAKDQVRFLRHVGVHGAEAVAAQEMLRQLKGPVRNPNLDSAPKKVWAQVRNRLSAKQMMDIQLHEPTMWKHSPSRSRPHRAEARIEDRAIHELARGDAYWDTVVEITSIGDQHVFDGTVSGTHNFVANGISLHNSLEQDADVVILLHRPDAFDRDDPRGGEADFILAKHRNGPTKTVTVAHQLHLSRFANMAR
# [6] = target: SWI/SNF-related matrix-associated actin-dependent regulator of chromatin subfamily A member 2 (Homo sapiens, UniProt P51531); assay: Luminescence-based cell-based high throughput dose response assay to identify activators of the function of SWI/SNF related, matrix associated, actin dependent regulator of chromatin, subfamily a, member 2 (SMARCA2, BRM).; type: functional
# SWI/SNF-related matrix-associated actin-dependent regulator of chromatin subfamily A member 2, sequence (P51531 whole entry): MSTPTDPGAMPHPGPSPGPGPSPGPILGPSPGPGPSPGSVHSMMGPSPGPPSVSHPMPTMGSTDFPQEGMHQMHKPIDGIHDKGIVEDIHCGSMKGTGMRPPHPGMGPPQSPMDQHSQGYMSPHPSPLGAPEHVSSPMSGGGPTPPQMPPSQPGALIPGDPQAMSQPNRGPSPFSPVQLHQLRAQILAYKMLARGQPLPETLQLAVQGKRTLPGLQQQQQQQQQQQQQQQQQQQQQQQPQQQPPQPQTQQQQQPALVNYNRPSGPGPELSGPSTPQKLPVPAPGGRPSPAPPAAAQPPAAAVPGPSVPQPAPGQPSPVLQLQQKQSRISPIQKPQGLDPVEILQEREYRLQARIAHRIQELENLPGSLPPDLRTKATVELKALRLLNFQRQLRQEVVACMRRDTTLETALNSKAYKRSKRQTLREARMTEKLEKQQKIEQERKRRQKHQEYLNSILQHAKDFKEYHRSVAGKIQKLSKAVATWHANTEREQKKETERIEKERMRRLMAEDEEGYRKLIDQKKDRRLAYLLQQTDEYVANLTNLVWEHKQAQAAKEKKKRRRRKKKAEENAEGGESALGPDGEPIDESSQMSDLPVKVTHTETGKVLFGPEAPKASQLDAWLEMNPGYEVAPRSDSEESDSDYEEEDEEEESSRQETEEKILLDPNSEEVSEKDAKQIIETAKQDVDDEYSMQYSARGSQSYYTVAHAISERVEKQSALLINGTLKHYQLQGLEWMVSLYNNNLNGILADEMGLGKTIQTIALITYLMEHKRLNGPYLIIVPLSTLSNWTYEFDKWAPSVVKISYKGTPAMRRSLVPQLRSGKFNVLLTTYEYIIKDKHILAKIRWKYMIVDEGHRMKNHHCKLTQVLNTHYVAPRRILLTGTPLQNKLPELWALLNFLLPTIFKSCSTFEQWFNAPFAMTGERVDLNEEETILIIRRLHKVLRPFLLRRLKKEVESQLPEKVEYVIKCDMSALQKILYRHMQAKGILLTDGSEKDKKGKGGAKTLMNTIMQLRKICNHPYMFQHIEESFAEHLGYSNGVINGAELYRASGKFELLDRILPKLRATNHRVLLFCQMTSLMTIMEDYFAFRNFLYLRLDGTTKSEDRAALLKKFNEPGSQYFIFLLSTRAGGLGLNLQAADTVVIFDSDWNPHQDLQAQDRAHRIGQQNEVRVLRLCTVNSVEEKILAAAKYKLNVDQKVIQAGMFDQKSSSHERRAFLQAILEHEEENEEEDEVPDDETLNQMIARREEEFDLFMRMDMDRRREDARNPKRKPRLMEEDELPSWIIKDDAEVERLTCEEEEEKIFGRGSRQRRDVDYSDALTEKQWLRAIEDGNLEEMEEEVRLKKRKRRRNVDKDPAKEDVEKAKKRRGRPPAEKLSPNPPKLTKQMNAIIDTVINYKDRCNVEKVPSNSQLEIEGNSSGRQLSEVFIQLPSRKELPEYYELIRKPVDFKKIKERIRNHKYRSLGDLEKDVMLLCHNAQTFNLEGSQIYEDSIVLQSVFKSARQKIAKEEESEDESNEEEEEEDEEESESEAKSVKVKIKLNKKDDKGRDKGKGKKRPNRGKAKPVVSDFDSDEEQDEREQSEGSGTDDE
# [7] = Counterscreen for activators of the function of SWI/SNF related, matrix associated, actin dependent regulator of chromatin, subfamily a, member 2 (SMARCA2, BRM): Luminescence-based cell-based high throughput dose response assay to identify non-selective compounds using the VP16 reporter assay.; type: functional
# ORF 73 = ORF 73 (Human herpesvirus 8, UniProt O40947); assay: inhibitors of C-LANA binding to LBS DNA, dose response, biochemical, fluorescence polarization, cherry-picked samples (AID 504725); set-up: species or system Human gammaherpesvirus 8;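 note: fluorescence polarization of a labeled DNA duplex reporting LANA DNA binding; potency is for inhibitors that block LANA binding to the DNA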
# ORF 73, sequence (O40947 whole entry): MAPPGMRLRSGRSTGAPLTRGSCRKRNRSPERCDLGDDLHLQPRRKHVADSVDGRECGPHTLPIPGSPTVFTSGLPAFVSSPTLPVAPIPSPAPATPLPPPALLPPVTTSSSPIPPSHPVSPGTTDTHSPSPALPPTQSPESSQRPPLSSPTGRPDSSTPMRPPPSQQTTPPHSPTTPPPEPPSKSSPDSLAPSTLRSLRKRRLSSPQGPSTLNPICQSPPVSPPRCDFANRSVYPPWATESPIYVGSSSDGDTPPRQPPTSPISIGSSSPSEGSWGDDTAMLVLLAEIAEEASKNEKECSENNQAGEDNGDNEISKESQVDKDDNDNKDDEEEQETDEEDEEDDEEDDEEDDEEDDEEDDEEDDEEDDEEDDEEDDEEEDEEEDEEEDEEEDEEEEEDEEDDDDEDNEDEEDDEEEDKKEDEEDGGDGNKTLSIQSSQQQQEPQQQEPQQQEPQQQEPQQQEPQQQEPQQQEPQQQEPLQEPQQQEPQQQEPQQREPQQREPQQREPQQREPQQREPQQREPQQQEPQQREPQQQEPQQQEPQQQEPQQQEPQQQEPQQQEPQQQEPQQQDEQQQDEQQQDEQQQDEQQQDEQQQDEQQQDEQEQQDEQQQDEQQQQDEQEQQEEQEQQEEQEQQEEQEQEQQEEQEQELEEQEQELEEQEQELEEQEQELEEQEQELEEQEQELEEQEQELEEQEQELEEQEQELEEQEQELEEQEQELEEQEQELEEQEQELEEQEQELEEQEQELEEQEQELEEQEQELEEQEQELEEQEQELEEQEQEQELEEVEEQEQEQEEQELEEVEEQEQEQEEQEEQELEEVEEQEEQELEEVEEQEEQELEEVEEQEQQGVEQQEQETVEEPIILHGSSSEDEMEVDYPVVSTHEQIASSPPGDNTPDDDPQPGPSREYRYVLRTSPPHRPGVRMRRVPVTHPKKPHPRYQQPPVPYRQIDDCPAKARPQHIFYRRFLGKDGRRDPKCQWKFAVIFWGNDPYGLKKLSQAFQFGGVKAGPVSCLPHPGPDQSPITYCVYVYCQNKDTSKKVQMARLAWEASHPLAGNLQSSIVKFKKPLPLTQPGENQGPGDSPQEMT
Compound,EC50 [1],AC50 (HEK293),AC50 (INS1),EC50 [2],AC50 [3],EC50 [4],EC50 (Streptococcus),EC50 (Protein RecA),AC50 [5],further results
CCCCC(=O)NC(c1ccc(Cl)cc1)c1ccc2cccnc2c1O (configuration not stated),0.268 µM (active),4.59 µM (active),0.476 µM (active),0.617 µM (active),15 µM (active),–,–,–,–,–
CCCCC(=O)NC(c1ccco1)c1cc(Cl)c2cccnc2c1O (configuration not stated),1.91 µM (active),–,2.74 µM (active),3.65 µM (active),4.37 µM (active),4 µM (active),8.22 µM (active),–,–,–
O=C(N/N=C/c1ccccc1O)/C(O)=C\C1=NC2(CCCC2)Cc2ccccc21,–,33.4 µM (active),–,–,–,3.18 µM (active),11.2 µM (active),–,–,EC50 (Caspase-7): > 85.3 µM (inactive)
CCc1ccc2c(c1)C(NC(C)=O)C(=O)N2CCN1CCOCC1 (configuration not stated),–,–,–,–,–,–,–,16.8 µM (active),22.3 µM (active),–
COc1ccc2noc3c2c1C(=O)c1ccccc1-3,–,–,–,–,–,–,–,3.61 µM (active),1.18 µM (inconclusive),EC50 [6]: > 91.2 µM (inactive); EC50 [7]: > 91.2 µM (inactive); AC50 (ORF 73): 0.228 µM (active)
